Assay results: patent publication US8865734B2 (priority 2010, dated 2014)
In brackets after ≈: the same amount, converted by molar mass.

Test system: multi-drug resistant (MDR) clinical isolates
Experiment: microbe, parasite or virus in culture
Format: cell-based, M. tuberculosis
Conditions: for MIC80 / MIC: Mycobacterium tuberculosis; for level of activity relative to MFX: MDR isolates and H37Rv

Compound `NNC(=O)c1ccncc1` [INH, Isoniazid, reference compound] has an MIC80 (MDR isolate #13) of 5 µM (≈ 0.686 µg/mL), an MIC80 (MDR isolate #33) of 10 µM (≈ 1.37 µg/mL) and an MIC80 (MDR isolate #48) of 10 µM (≈ 1.37 µg/mL). It also gave an MIC80 (MDR isolate #61) of 20 µM (≈ 2.74 µg/mL), an MIC80 (MDR isolate #80) of 5 µM (≈ 0.686 µg/mL) and an MIC80 (MDR isolate #125) of 10 µM (≈ 1.37 µg/mL). For the same compound, the MIC80 (MDR isolate #137) was 20 µM (≈ 2.74 µg/mL), the MIC80 (MDR isolate #143) was 10 µM (≈ 1.37 µg/mL) and the MIC80 (MDR isolate #146) was 20 µM (≈ 2.74 µg/mL). For the same compound, the MIC80 (MDR isolate #171) was 5 µM (≈ 0.686 µg/mL) and the “resistance of the MDR strains” value (all MDR tested strains) was “resistance was confirmed”.

With `CCc1nc2ccccn2c1C(=O)NCc1ccc(-c2ccccc2)cc1` [Compound 47, N-(Biphenyl-4-ylmethyl)-2-ethylimidazo[1,2-a]pyridine-3-carboxamide] the “level of activity relative to MFX” value was “comparable to or better than MFX”, the MIC was no more than 1.25 µM and the MIC80 (MDR isolate #13) was 0.312 µM (≈ 0.111 µg/mL). It also gave an MIC80 (MDR isolate #33) of 0.312 µM (≈ 0.111 µg/mL), an MIC80 (MDR isolate #48) of 0.312 µM (≈ 0.111 µg/mL) and an MIC80 (MDR isolate #61) of 0.312 µM (≈ 0.111 µg/mL). For the same compound, the MIC80 (MDR isolate #80) was 0.312 µM (≈ 0.111 µg/mL), the MIC80 (MDR isolate #125) was 0.625 µM (≈ 0.222 µg/mL) and the MIC80 (MDR isolate #137) was 1.25 µM (≈ 0.444 µg/mL). For the same compound, the MIC80 (MDR isolate #143) was 1.25 µM (≈ 0.444 µg/mL), the MIC80 (MDR isolate #146) was 0.156 µM (≈ 0.0555 µg/mL) and the MIC80 (MDR isolate #171) was 1.25 µM (≈ 0.444 µg/mL).

For `CCc1nc2ccccn2c1C(=O)NCc1ccc(Oc2ccccc2)cc1` [Compound 54, 2-Ethyl-N-(4-phenoxybenzyl)imidazo[1,2-a]pyridine-3-carboxamide], the “level of activity relative to MFX” value was “comparable to or better than MFX”, the MIC was no more than 0.625 µM and the MIC80 (MDR isolate #13) was 0.156 µM (≈ 0.058 µg/mL). For the same compound, the MIC80 (MDR isolate #33) was 0.156 µM (≈ 0.058 µg/mL), the MIC80 (MDR isolate #48) was 0.156 µM (≈ 0.058 µg/mL) and the MIC80 (MDR isolate #61) was 0.156 µM (≈ 0.058 µg/mL). It also gave an MIC80 (MDR isolate #80) of 0.156 µM (≈ 0.058 µg/mL), an MIC80 (MDR isolate #125) of 0.312 µM (≈ 0.116 µg/mL) and an MIC80 (MDR isolate #137) of 0.625 µM (≈ 0.232 µg/mL). It also gave an MIC80 (MDR isolate #143) of 0.312 µM (≈ 0.116 µg/mL), an MIC80 (MDR isolate #146) of 0.312 µM (≈ 0.116 µg/mL) and an MIC80 (MDR isolate #171) of 0.312 µM (≈ 0.116 µg/mL).
